The results in this text go back to PubChem BioAssay AID588477 (NMMLSC, 2011).

A short description of test [1]: small GTPase nucleotide-binding inhibition, multiplex panel – biochemical, round 1 SAR, Mg buffer, multiplex flow cytometry, selectivity assay for Cdc42 probe extension project, SAR follow-up (AID 588477). As to conditions: GST-GTPase beads, Bodipy-GTP binding, Cdc42 constitutively active.
In test [2] the target is Cdc42 wt. Described as above. The settings on record: GST-GTPase beads, Bodipy-GTP binding.

The source made the active and inactive calls.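 The calls were made as follows: active = valid curve fit with half-effect dose at most 10 µM and total binding change across doses of 30 points or more; inactive = the rest.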

As for `O=C(C#Cc1ccccc1)c1cccc([N+](=O)[O-])c1`, in test [1], the concentration giving a half-maximal response (EC50) was 2.68 µM. Also, the “percent response (remaining binding)” value in test [2] (at 100 µM (top of the series)) was “inactive”.
In the case of `NS(=O)(=O)c1ccc(N2N=C(c3ccccc3)CC2c2ccccc2)cc1` (stereo unspecified), the “percent response (remaining binding)” value in test [1] (at 100 µM (top of the series)) was “inactive”. Moreover, the EC50 in test [2] was 7.26 µM.
Consider `COc1ccc(C2CC(c3ccccc3)=NN2c2ccc(S(N)(=O)=O)cc2)cc1` (stereo unspecified), for which the EC50 was 3.69 µM in test [1] and 2.41 µM in test [2].
